Source: patent publication US9637493B2, “Substituted pyrrolopyrimidines as HDM2 inhibitors” (Merck Sharp & Dohme Corp., priority 2012, dated 2017)

Biological target: HDM2 (Homo sapiens (Human), UniProt Q00987)
Test: HDM2 FRET assay (inhibition of p53 peptide binding to HDM2)
Conditions: truncated HDM2 residues 17 to 125, 0.5 nM; FITC labeled 8-mer peptide 3 nM; two hour incubation at room temperature
Experimental: Methods: An HDM2 FRET assay was developed to assess the compounds' inhibitory activity towards binding of p53 protein. […] (containing p53 binding surface, Science (1994) 265, 346-355), with N-terminal His and Thioredoxin tag was generated in pET32a expression vector and expressed in E. coli strain BL21(DE3)Rosetta. Protein was purified using Ni-affinity chromatography, followed by size exclusion chromatography using Superdex 75 26/60 column. […] After two hour incubation at room temperature in a humidified chamber plates were read on EnVision plate reader with the following settings: excitation: UV, […], two emission filters: 520 nm and 495 nm respectively. […] IC50 DETERMINATIONS: Dose-response curves were plotted from the inhibition data, from 10 point serial dilutions of inhibitory compounds. Concentration of compound was plotted against em520/Cem495 ratio signal. To generate IC50 values, the dose-response curves were fitted to a standard sigmoidal curve and IC50 values were derived by nonlinear regression analysis.

HDM2, sequence (Q00987 17-125): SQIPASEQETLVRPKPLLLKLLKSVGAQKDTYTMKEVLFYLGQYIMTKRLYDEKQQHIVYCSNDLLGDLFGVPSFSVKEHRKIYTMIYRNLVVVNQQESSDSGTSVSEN

Row | SMILES | IC50 [nM]
1 | C[C@H]1CC[C@H](Cn2c(C(F)c3ccccc3F)cc3nc(C(=O)O)nc(-c4cncc(Cl)c4)c32)CC1 (mixture of isomers) [Example 8.1, 4-(5-chloropyridin-3-yl)-6-[fluoro(2-fluorophenyl)methyl]-5-[(trans-4-methylcyclohexyl)methyl]-5H-pyrrolo[3,2-d]pyrimidine-2-carboxylic acid] | 3
2 | Cc1ccc(F)c(-c2cc3nc(C(=O)O)nc(N[C@H](C)C4CCC4)c3n2Cc2ccc(C(F)(F)F)cc2)c1 [Example 1.1, (R)-4-((1-cyclobutylethyl)amino)-6-(2-fluoro-5-methylphenyl)-5-(4-(trifluoromethyl)benzyl)-5H-pyrrolo[3,2-d]pyrimidine-2-carboxylic acid] | 62
3 | Cc1ccc(F)c(-c2cn(Cc3ccc(C(F)(F)F)cc3)c3c(N[C@H](C)C4CCC4)nc(C(=O)O)nc23)c1 [Example 1.2, (R)-4-((1-cyclobutylethyl)amino)-7-(2-fluoro-5-methylphenyl)-5-(4-(trifluoromethyl)benzyl)-5H-pyrrolo[3,2-d]pyrimidine-2-carboxylic acid] | 353
4 | Cc1cccc(-c2cc3nc(C(=O)O)nc(N[C@H](C)C4CCC4)c3n2Cc2ccc(C(F)(F)F)cc2)c1 [Example 1.3, (R)-4-((1-cyclobutylethyl)amino)-6-(m-tolyl)-5-(4-(trifluoromethyl)benzyl)-5H-pyrrolo[3,2-d]pyrimidine-2-carboxylic acid] | 140
5 | Cc1cccc(-c2c(C)c3nc(C(=O)O)nc(N[C@H](C)C4CCC4)c3n2Cc2ccc(C(F)(F)F)cc2)c1 [Example 1.4, (R)-4-((1-cyclobutylethyl)amino)-7-methyl-6-(m-tolyl)-5-(4-(trifluoromethyl)benzyl)-5H-pyrrolo[3,2-d]pyrimidine-2-carboxylic acid] | 130
6 | COc1ccc(C)cc1-c1cc2nc(C(=O)O)nc(N[C@H](C)C3CCC3)c2n1Cc1ccc(C(F)(F)F)cc1 [Example 1.5, 4-{[(1R)-1-cyclobutylethyl]amino}-6-(2-methoxy-5-methylphenyl)-5-[4-(trifluoromethyl)benzyl]-5H-pyrrolo[3,2-d]pyrimidine-2-carboxylic acid] | 42
7 | C[C@@H](Nc1nc(C(=O)O)nc2cc(-c3ccc4occc4c3)n(Cc3ccc(C(F)(F)F)cc3)c12)C1CCC1 [Example 1.6, 6-(1-benzofuran-5-yl)-4-{[(1R)-1-cyclobutylethyl]amino}-5-[4-(trifluoromethyl)benzyl]-5H-pyrrolo[3,2-d]pyrimidine-2-carboxylic acid] | 105
8 | Cc1ccc(Cl)c(-c2cc3nc(C(=O)O)nc(N[C@H](C)C4CCC4)c3n2Cc2ccc(C(F)(F)F)cc2)c1 [Example 1.7, 6-(2-chloro-5-methylphenyl)-4-{[(1R)-1-cyclobutylethyl]amino}-5-[4-(trifluoromethyl)benzyl]-5H-pyrrolo[3,2-d]pyrimidine-2-carboxylic acid] | 63
9 | Cc1ccc(Cl)c(-c2cn(Cc3ccc(C(F)(F)F)cc3)c3c(N[C@H](C)C4CCC4)nc(C(=O)O)nc23)c1 [Example 1.8, 7-(2-chloro-5-methylphenyl)-4-{[(1R)-1-cyclobutylethyl]amino}-5-[4-(trifluoromethyl)benzyl]-5H-pyrrolo[3,2-d]pyrimidine-2-carboxylic acid] | 712
10 | Cc1ccnc(-c2cc3nc(C(=O)O)nc(N[C@H](C)C4CCC4)c3n2Cc2ccc(C(F)(F)F)cc2)c1 [Example 1.9, 4-{[(1R)-1-cyclobutylethyl]amino}-6-(4-methylpyridin-2-yl)-5-[4-(trifluoromethyl)benzyl]-5H-pyrrolo[3,2-d]pyrimidine-2-carboxylic acid] | 18
11 | CC(C)c1ccnc(-c2cc3nc(C(=O)O)nc(N[C@H](C)C4CCC4)c3n2Cc2ccc(C(F)(F)F)cc2)c1 [Example 1.10, 4-{[(1R)-1-cyclobutylethyl]amino}-6-[4-(1-methylethyl)pyridin-2-yl]-5-[4-(trifluoromethyl)benzyl]-5H-pyrrolo[3,2-d]pyrimidine-2-carboxylic acid] | 26
